20 molecules from patent US20260001914A1, “MACROCYCLIC PEPTIDES TARGETING KRAS” (Merck Sharp & Dohme LLC, priority 2022, published 2026) can be followed below.

*1 amine or outer side, *2 acyl side, *3 side chain or, on linkers, in order; H or OH if unused. Where a SMILES comes first, the peptide text is derived from it. Bridges are numbered along the chain shown (N, C = ends). [ ]: non-standard residue; d: D form. NMeNva(5-imidazol-1-yl) = CN[C@@H](CCCn1ccnc1)C(=O)O; Phe(4-guanidino) = N=C(N)Nc1ccc(C[C@H](N)C(=O)O)cc1; X22 = CNC(=N)N(C)CCC[C@@H](C(=O)[*:2])N(C)[*:1]; Ala(pyrimidin-5-yl) = N[C@@H](Cc1cncnc1)C(=O)O; NMe3Pal(6-Me) = CN[C@@H](Cc1ccc(C)nc1)C(=O)O; X8 = CN([C@@H](Cc1ccc(F)nc1)C(=O)[*:2])[*:1]; X45 = CN([C@@H](Cc1ccncc1F)C(=O)[*:2])[*:1]; X42 = O=C([C@H](Cc1cc(F)ncc1F)N[*:1])[*:2]; X20 = CN([C@@H](Cc1cnco1)C(=O)[*:2])[*:1]; X11 = CC(C)(F)CC[C@H](N[*:1])C(=O)[*:2]; NMeAha = CN[C@@H](CCN=[N+]=[N-])C(=O)O; Phe(2-CN) = N#Cc1ccccc1C[C@H](N)C(=O)O; Phe(4-Me) = Cc1ccc(C[C@H](N)C(=O)O)cc1; Phe(2-F) = N[C@@H](Cc1ccccc1F)C(=O)O; NMe3Pal = CN[C@@H](Cc1cccnc1)C(=O)O; X1 = O=C(C12CC(CN[*:1])(C1)C2)[*:2]; NMeLys(Me) = CNCCCC[C@H](NC)C(=O)O; Aha = [N-]=[N+]=NCC[C@H](N)C(=O)O; NMeOrn(Me) = CNCCC[C@H](NC)C(=O)O; Ala(cPr) = N[C@@H](CC1CC1)C(=O)O; NMeF = CN[C@@H](Cc1ccccc1)C(=O)O; PhLac = O=C(O)[C@@H](O)Cc1ccccc1; 3Pal = N[C@@H](Cc1cccnc1)C(=O)O; Gly(N(CH2)3NH2) = NCCCNCC(=O)O; Ahp(2) = CCCCC[C@H](N)C(=O)O; Cba = N[C@@H](CC1CCC1)C(=O)O; hLeu = CC(C)CC[C@H](N)C(=O)O; αMeC = C[C@](N)(CS)C(=O)O; NMeA = CN[C@@H](C)C(=O)O; Nle = CCCC[C@H](N)C(=O)O

Sequence of phosphorylation levels of ERK1/2 in AsPC-1 (homozygous KRAS-G12D) cells (P01116 1-186 G12D): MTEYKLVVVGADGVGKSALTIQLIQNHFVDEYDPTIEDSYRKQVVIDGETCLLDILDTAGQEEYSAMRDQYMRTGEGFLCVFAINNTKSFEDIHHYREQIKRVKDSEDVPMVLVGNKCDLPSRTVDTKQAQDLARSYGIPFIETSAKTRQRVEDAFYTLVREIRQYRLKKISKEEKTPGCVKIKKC

The experiment has as its target phosphorylation levels of ERK1/2 in AsPC-1 (homozygous KRAS-G12D) cells (Homo sapiens, UniProt P01116, G12D). As to the kind of experiment: Cellular phospho-ERK assay in AsPC-1 cells (Alpha Screen), assay medium without fetal bovine serum.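 Also: signal taken as phospho-ERK over total ERK per well, both detected in one multiplex bead assay, EC50 from four-parameter logistic fit of dose-response curves.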 The class given is cell-based. The settings on record: phospho-ERK AlphaScreen, 18 h. (Alpha assays give light when donor and acceptor beads are brought close together.)
Description: Assay plate was incubated at 37° C. 5% CO2 for the indicated length of time. […] Phosphorylated ERK and total ERK levels were detected by Alpha SureFire Ultra Multiplex pERK kit (PerkinElmer MPSU-PTERK) using 5 μL, acceptor bead mix and 5 μL donor bead mix, both prepared following the manufacturer's protocol. Plates were sealed using aluminum sealing tape (Costar 07-200-683) during incubation at ambient temperature with constant shaking at 300 rpm for 1 h (both acceptor and donor). Assay plates were read on a Envision Xcite Multilabel Reader (PerkinElmer 1040900) at ambient temperature, with emission at 535 nm (Total ERK) and emission at 615 nm (Phospho ERK). Ratio of pERK vs total ERK in each well was used as the final readout. Dose response curves and EC50 were analyzed using a 4-parameter logistic equation in GraphPad Prism software.
Take `C[C@H]1C(=O)N[C@@H](Cc2cncnc2)C(=O)N[C@@H](CC2CC2)C(=O)N[C@@H](Cc2ccccc2F)C(=O)NC2CC/C=C\CC[C@@H](C(=O)NCC34CC(C3)(C4)C(=O)O[C@@H](Cc3ccccc3)C(=O)N1C)N(C)C2=O` [SEQ ID NO: 182, cyclo(FLac-NMeA-PyrimAla-cPrA-Phe2F-Hag-NMeHag-amBCP)]: the EC50 (in general, the concentration giving half of the maximal effect) amounted to 41.2 µM.

Consider `CCCC[C@@H]1NC(=O)[C@H](Cc2cccnc2)NC(=O)[C@H](CCN=[N+]=[N-])N(C)C(=O)[C@H](Cc2ccccc2)OC(=O)C23CC(CNC(=O)[C@H](Cc4cccnc4)N(C)C(=O)[C@H](CCCC)NC(=O)[C@H](Cc4ccccc4F)NC1=O)(C2)C3` [compound 249, cyclo(FLac-NMeDabN3-3Pal-Nle-Phe2F-Nle-NMe3Pal-amBCP)] (cyclo([3Pal][Nle][Phe(2-F)][Nle][NMe3Pal][X1][PhLac][NMeAha])), for which a half-maximal effect (EC50) was put at 3.95 µM.

For the molecule `CCCCC[C@@H]1NC(=O)[C@H](Cc2ccc(OC)cc2)NC(=O)[C@H](CC2CCC2)NC(=O)[C@H](Cc2ccc(NC(=N)N)cc2)NC(=O)[C@H](CCCCNC)N(C)C(=O)[C@H](Cc2ccccc2)NC(=O)CSC[C@@](C)(C(N)=O)NC(=O)[C@H](Cc2ccccc2)N(C)C1=O` [compound 360, cyclo(F-NMeLysMe-Phe4Gn-cBuA-TyrOMe-Ahp-NMeF-aMeCl-ClAc)] ({CH2CO}-F[NMeLys(Me)][Phe(4-guanidino)][Cba]Y(Me)[Ahp(2)][NMeF][αMeC]-NH2; thioether N-8), the EC50 was greater than 50.8 µM.

Molecule `C[C@H]1C(=O)N[C@@H](Cc2cncnc2)C(=O)N[C@@H](CC2CCC2)C(=O)N[C@@H](Cc2ccccc2F)C(=O)N[C@@H](CCC(C)(C)F)C(=O)N(C)[C@@H](Cc2ccccc2)C(=O)NCC23CC(C2)(C3)C(=O)O[C@@H](Cc2ccccc2)C(=O)N1C` [compound 225, cyclo(FLac-NMeA-PyrimAla-cBuA-Phe2F-hL3F-NMeF-amBCP)] (cyclo([Cba][Phe(2-F)][X11][NMeF][X1][PhLac][NMeA][Ala(pyrimidin-5-yl)])) gave an EC50 of 0.674 µM.

Take `CCCCC[C@@H]1NC(=O)[C@H](Cc2ccc(OC)cc2)NC(=O)[C@H](CC2CCC2)NC(=O)[C@H](Cc2ccc(C)nc2)NC(=O)[C@H](CCCNC(=N)N)NC(=O)[C@H](Cc2ccccc2)NC(=O)CSC[C@@](C)(C(N)=O)NC(=O)[C@H](Cc2ccccc2)N(C)C1=O` [compound 364, cyclo(F-R-4Me3Pal-cBuA-TyrOMe-Ahp-NMeF-aMeCl-ClAc)]: the EC50 is greater than 50.8 µM.

As to `CCCC[C@@H]1NC(=O)[C@H](Cc2cccnc2)NC(=O)[C@H](C)N(C)C(=O)[C@H](Cc2ccccc2)OC(=O)C23CC(CNC(=O)[C@H](Cc4cccnc4)N(C)C(=O)[C@H](CCC(C)C)NC(=O)[C@H](Cc4ccccc4F)NC1=O)(C2)C3` [compound 124, cyclo(FLac-NMeA-3Pal-Nle-Phe2F-hL-NMe3Pal-amBCP)] (cyclo([3Pal][Nle][Phe(2-F)][hLeu][NMe3Pal][X1][PhLac][NMeA])), the EC50 amounted to 4.65 µM.

`CCCC[C@@H]1NC(=O)[C@H](Cc2cccnc2)NC(=O)[C@H](CCCn2ccnc2)N(C)C(=O)[C@H](Cc2ccccc2)OC(=O)C23CC(CNC(=O)[C@H](Cc4ccccc4)N(C)C(=O)[C@H](CCCC)NC(=O)[C@H](Cc4ccccc4F)NC1=O)(C2)C3` [compound 233, cyclo(FLac-NMeNvalmid-3Pal-Nle-Phe2F-Nle-NMeF-amBCP)] (cyclo([3Pal][Nle][Phe(2-F)][Nle][NMeF][X1][PhLac][NMeNva(5-imidazol-1-yl)])) registered an EC50 of 5.16 µM.

Molecule `CC(C)CC[C@@H]1NC(=O)[C@H](Cc2ccccc2F)NC(=O)[C@H](CC2CC2)NC(=O)[C@H](Cc2cncnc2)NC(=O)[C@H](C)N(C)C(=O)[C@H](Cc2ccccc2)OC(=O)C23CC(CNC(=O)[C@H](Cc4ccc(F)nc4)N(C)C1=O)(C2)C3` [compound 339, cyclo(FLac-NMeA-PyrimAla-cPrA-Phe2F-hL-NMe3Pal4F-amBCP)] (cyclo([Ala(cPr)][Phe(2-F)][hLeu][X8][X1][PhLac][NMeA][Ala(pyrimidin-5-yl)])) registered an EC50 of 1.65 µM.

`CCCC[C@@H]1NC(=O)[C@H](Cc2cccnc2)NC(=O)[C@H](CCCN(C)C(=N)NC)N(C)C(=O)[C@H](Cc2ccccc2)OC(=O)CSC[C@@](C)(C(N)=O)NC(=O)[C@H](Cc2cccnc2)N(C)C(=O)[C@H](CCCC)NC(=O)[C@H](Cc2ccccc2F)NC1=O` [compound 396, cyclo(FLac-NMeArg1MeMe-3Pal-Nle-Phe2F-Nle-NMe3Pal-aMeCl-ClAc)] ({CH2CO}-[PhLac][X22][3Pal][Nle][Phe(2-F)][Nle][NMe3Pal][αMeC]-NH2; thioether N-8) displayed an EC50 greater than 50.8 µM.

`CC(C)CC[C@@H]1NC(=O)[C@H](Cc2cc(F)ncc2F)NC(=O)[C@H](CC2CC2)NC(=O)[C@H](Cc2cncnc2)NC(=O)[C@H](C)N(C)C(=O)[C@H](Cc2ccccc2)OC(=O)C23CC(CNC(=O)[C@H](Cc4ccccc4)N(C)C1=O)(C2)C3` [compound 280, cyclo(FLac-NMcA-PyrimAla-cPrA-4Pal25F2-hL-NMeF-amBCP)] (cyclo([Ala(cPr)][X42][hLeu][NMeF][X1][PhLac][NMeA][Ala(pyrimidin-5-yl)])) displayed an EC50 of 1.23 µM.

In turn, `CCCCC[C@@H]1NC(=O)[C@H](Cc2ccc(OC)cc2)NC(=O)[C@H](CC2CCC2)NC(=O)[C@H](Cc2cccnc2)NC(=O)[C@H](CCCNC(=N)N)NC(=O)[C@H](Cc2ccccc2)NC(=O)CSC[C@@](C)(C(N)=O)NC(=O)[C@H](Cc2cnco2)N(C)C1=O` [compound 379, cyclo(F-R-3Pal-cBuA-TyrOMe-Ahp-NMeAla5Oxa-aMeCl-ClAc)] ({CH2CO}-FR[3Pal][Cba]Y(Me)[Ahp(2)][X20][αMeC]-NH2; thioether N-8) returned an EC50 greater than 50.8 µM.

Molecule `CCCC[C@@H]1NC(=O)[C@H](C(C)C)NC(=O)[C@H](CC2CCC2)NC(=O)[C@H](Cc2cccnc2)NC(=O)[C@H](CCN=[N+]=[N-])NC(=O)[C@H](Cc2ccccc2)NC(=O)C23CC(CNC(=O)[C@H](Cc4cccnc4)N(C)C1=O)(C2)C3` [compound 113, cyclo(F-DabN3~3Pal-cBuA-V-Nle-NMe3Pal-amBCP)] (cyclo(F[Aha][3Pal][Cba]V[Nle][NMe3Pal][X1])) gave an EC50 greater than 50.8 µM.

`CC(C)CC[C@@H]1NC(=O)[C@H](Cc2ccccc2F)NC(=O)[C@H](CC2CCC2)NC(=O)[C@H](Cc2cncnc2)NC(=O)[C@H](C)N(C)C(=O)[C@H](Cc2ccccc2)OC(=O)C23CC(CNC(=O)[C@H](Cc4ccccc4)N(C)C1=O)(C2)C3` [compound 134, cyclo(FLac-NMeA-PyrimAla-cBuA-Phe2F-hL-NMeF-amBCP)] (cyclo([Cba][Phe(2-F)][hLeu][NMeF][X1][PhLac][NMeA][Ala(pyrimidin-5-yl)])) displayed an EC50 of 0.33 µM.

With `CCCC[C@@H]1NC(=O)[C@H](Cc2ccccc2F)NC(=O)[C@H](CCC(C)C)NC(=O)[C@H](Cc2cncnc2)NC(=O)[C@H](C)N(C)C(=O)[C@H](Cc2ccccc2)OC(=O)C23CC(CNC(=O)[C@H](Cc4cccnc4)N(C)C1=O)(C2)C3` [compound 127, cyclo(FLac-NMeA-PyrimAla-hL-Phe2F-Nle-NMe3Pal-amBCP)] (cyclo([NMe3Pal][X1][PhLac][NMeA][Ala(pyrimidin-5-yl)][hLeu][Phe(2-F)][Nle])), the EC50 was greater than 50.8 µM.

`CCCCC[C@@H]1NC(=O)[C@H](Cc2ccccc2C#N)NC(=O)[C@H](CC2CCC2)NC(=O)[C@H](Cc2cccnc2)NC(=O)[C@H](CCCNC(=N)N)NC(=O)[C@H](Cc2ccccc2)NC(=O)CSC[C@@](C)(C(N)=O)NC(=O)[C@H](Cc2ccccc2)N(C)C1=O` [compound 375, cyclo(F-R-3Pal-cBuA-Phe2CN-Ahp-NMeF-aMeCl-ClAc)] ({CH2CO}-FR[3Pal][Cba][Phe(2-CN)][Ahp(2)][NMeF][αMeC]-NH2; thioether N-8): the EC50 was greater than 50.8 µM.

As to `CCCCC[C@@H]1NC(=O)[C@H](Cc2ccc(OC)cc2)NC(=O)[C@H](CC2CCC2)NC(=O)[C@H](Cc2ccc(=O)[nH]c2)NC(=O)[C@H](CCCNC(=N)N)NC(=O)[C@H](Cc2ccccc2)NC(=O)CSC[C@@](C)(C(N)=O)NC(=O)[C@H](Cc2ccccc2)N(C)C1=O` [compound 369, cyclo(F-R-4CO3Pal-cBuA-TyrOMe-Abp-NMeF-aMeCl-ClAc)], the EC50 was greater than 50.8 µM.

`CCCC[C@@H]1NC(=O)[C@H](Cc2cccnc2)NC(=O)[C@H](C)N(C)C(=O)[C@H](Cc2ccc(C)cc2)NC(=O)C23CC(CNC(=O)[C@H](Cc4cccnc4)N(C)C(=O)[C@H](CCCC)NC(=O)[C@H](Cc4ccccc4F)NC1=O)(C2)C3` [compound 170, cyclo(Phe4Me-NMeA-3Pal-Nle-Phe2F-Nle-NMe3Pal-amBCP)] (cyclo([3Pal][Nle][Phe(2-F)][Nle][NMe3Pal][X1][Phe(4-Me)][NMeA])) had an EC50 of 37.2 µM.

With `CC(C)CC[C@@H]1NC(=O)[C@H](Cc2ccccc2F)NC(=O)[C@H](CC2CC2)NC(=O)[C@H](Cc2cncnc2)NC(=O)[C@H](C)N(C)C(=O)[C@H](Cc2ccccc2)OC(=O)C23CC(CNC(=O)[C@H](Cc4ccncc4F)N(C)C1=O)(C2)C3` [compound 337, cyclo(FLac-NMeA-PyrimAla-cPrA-Phe2F-hL-NMe4Pal2F-amBCP)] (cyclo([Ala(cPr)][Phe(2-F)][hLeu][X45][X1][PhLac][NMeA][Ala(pyrimidin-5-yl)])), the EC50 came out at 3.35 µM.

In the case of `CCCCC[C@@H]1NC(=O)[C@H](Cc2ccc(OC)cc2)NC(=O)[C@H](CC2CCC2)NC(=O)[C@H](Cc2cncnc2)NC(=O)[C@H](CCCNC)N(C)C(=O)[C@H](Cc2ccccc2)NC(=O)CSC[C@@](C)(C(N)=O)NC(=O)[C@H](Cc2ccc(C)nc2)N(C)C1=O` [compound 394, cyclo(F-NMeOmMe-PyrimAla-cBuA-TyrOMe-Ahp-NMe3Pal4Me-aMeCl-ClAc)] ({CH2CO}-F[NMeOrn(Me)][Ala(pyrimidin-5-yl)][Cba]Y(Me)[Ahp(2)][NMe3Pal(6-Me)][αMeC]-NH2; thioether N-8), the EC50 was greater than 50.8 µM.

In the case of `CCCCC[C@@H]1NC(=O)[C@H](Cc2ccc(OC)cc2)NC(=O)[C@H](CC2CCC2)NC(=O)[C@H](Cc2ccc(NC(=N)N)cc2)NC(=O)CN(CCCN)C(=O)[C@H](Cc2ccccc2)NC(=O)CSC[C@@](C)(C(N)=O)NC(=O)[C@H](Cc2ccccc2)N(C)C1=O` [compound 388, cyclo(F-NPrNH2G-Phe4Gn-cBuA-TyrOMe-Ahp-NMeF-aMeCl-ClAc)] ({CH2CO}-F[Gly(N(CH2)3NH2)][Phe(4-guanidino)][Cba]Y(Me)[Ahp(2)][NMeF][αMeC]-NH2; thioether N-8), the EC50 is greater than 50.8 µM.
